Columns and labels:
[1] = DPPH radical scavenging activity at 3000 uM; format: functional
[2] = Superoxide radical scavenging activity; format: functional

SMILES	Activity [1]	IC50 [2]
COc1cc(C)c2c(c1C=O)Oc1c(C=O)c(C(=O)O)c(O)c(C)c1OC2=O	30%	
COc1cc(C)c2c(c1CO)Oc1c3c(c(O)c(C)c1OC2=O)C(=O)OC3	18%	
Cc1cc(O)c(C=O)c2c1C(=O)Oc1c(C)c(O)c3c(c1O2)C(O)OC3=O (stereo not given) [NORSTICTIC ACID]		566 µM
Cc1cc(O)c(C=O)c2c1C(=O)Oc1c(COC(=O)/C=C/C(=O)O)c(O)c(C(=O)O)c(C)c1O2 [FUMARPROTOCETRARIC ACID]	20%	580 µM
